According to patent US20250235455A1, “AQUEOUS TICAGRELOR SOLUTIONS, METHOD OF MANUFACTURING AND USES” (HYLORIS DEVELOPMENTS SA, priority 2022, published 2025):

Assay: Stability of ticagrelor 6 mg/ml in HPβCD 40% w/w, buffer pH 4.5, 5.5, 6.5, stored at 40° C. and 75% RH (HPLC related substances)
Assay type: physicochemical
Protocol: HPβCD was dissolved in a buffer solution of pH 4.5, 5.5 or 6.5 prepared separately in water. […] The ticagrelor in buffer solution was filtered through a 0.22 micron filtered and filled in USP Type I glass vials. The vials were stoppered and stored. All precautions were taken during manufacturing, such as N2 purging and avoiding direct exposure to light. The vials were stored at 40° C. and 75% Relative Humidity (RH).
To determine the stability of the formulations, batches were evaluated using a related substance method on HPLC.
A Gradient HPLC method was used to analyze impurities in formulations using a YMC-Pack Pro C18 column (100×4.6 mm, S-3 μm 12 nm). Good separation was obtained for all the impurities. • Amine impurity: (1S,2S,3R,5S)-3-(7-amino-5-(propylsulfanyl)-3H-[1,2,3]triazolo[4,5-d]pyrimidin-3-yl)-5-(2-hydroxyethoxy)cyclopentane-1,2-diol. This is a process related degradant impurity. • Regiomer impurity: (1S, 2S, 3R, 5S)-3-((3-((1R,2S)-2-(3,4-Difluorophenyl)cyclopropyl)-5-(propylsulfanyl)-3H-[1,2,3]triazolo[4,5-d]pyrimidin-7-yl)amino)-5-(2-hydroxyethoxy)cyclopentane-1,2-diol. This is a process related degradant impurity. • Acetal impurity: 2-[[(3aR,4S,6S,6aS)-6-[7-[1R,2S)-2-(3,4-difluorophenyl)-cyclopropyl]amino]-5-(propylsulfanyl)-3H-[1,2,3]triazolo-[4,5-d]pyrimidin-3-yl]-2,2-dimethyltetrahydro-2H-3aHcyclopenta[d][1,3]dioxol-4-yl]oxy]ethan-1-ol.

[1] = pH 4.5, T = 2 weeks, 40° C./75% RH
[2] = pH 4.5, T = 4 weeks, 40° C./75% RH
[3] = pH 5.5, T = 2 weeks, 40° C./75% RH
[4] = pH 5.5, T = 4 weeks, 40° C./75% RH
[5] = pH 6.5, T = 2 weeks, 40° C./75% RH
[6] = pH 6.5, T = 4 weeks, 40° C./75% RH

SMILES: CCCSc1nc(N[C@@H]2C[C@H]2c2ccc(F)c(F)c2)c2nnn([C@@H]3C[C@H](OCCO)[C@@H](O)[C@H]3O)c2n1 [Ticagrelor, (1S,2S,3R,5S)-3-{7-[(1R,2S)-2-(3,4-difluorophenyl)cyclopropylamino]5-(propylthio)-3H-(1,2,3)triazolo (4,5-D)pyrimidin-3-yl}-5-(2 hydroxyethoxy)cyclopentane-1,2-diol]
- Regiomer impurity level (4 weeks 40° C. and 75% RH, specification limit 0.3%): ~0.3%
- Acetal impurity content (pH 4.5, T = 0): 0.05%
- Amine impurity content (pH 4.5, T = 0): 0.05%
- Content of unnamed impurity, relative retention time 1.52 (pH 4.5, T = 0): 0.03%
- Oxidative impurity 1 content (pH 4.5, T = 0): 0.00%
- Oxidative impurity 2 content (pH 4.5, T = 0): 0.00%
- Regiomer impurity content (pH 4.5, T = 0): 0.00%
- Sum Impurities >0.05 (pH 4.5, T = 0): 0.22%
- Total Impurities (pH 4.5, T = 0): 0.36%
- Triol impurity content (pH 4.5, T = 0): 0.05%
- Acetal impurity content [1]: 0.06%
- Amine impurity content [1]: 0.05%
- Content of unnamed impurity, relative retention time 1.52 [1]: 0.04%
- Oxidative impurity 1 content [1]: 0.00%
- Oxidative impurity 2 content [1]: 0.00%
- Regiomer impurity content [1]: 0.00%
- Sum Impurities >0.05 [1]: 0.23%
- Total Impurities [1]: 0.40%
- Triol impurity content [1]: 0.05%
- Acetal impurity content [2]: 0.05%
- Amine impurity content [2]: 0.05%
- Content of unnamed impurity, relative retention time 1.52 [2]: 0.03%
- Oxidative impurity 1 content [2]: 0.01%
- Oxidative impurity 2 content [2]: 0.02%
- Regiomer impurity content [2]: 0.42%
- Sum Impurities >0.05 [2]: 0.63%
- Total Impurities [2]: 0.80%
- Triol impurity content [2]: 0.05%
- Acetal impurity content (pH 5.5, T = 0): 0.05%
- Amine impurity content (pH 5.5, T = 0): 0.04%
- Content of unnamed impurity, relative retention time 1.52 (pH 5.5, T = 0): 0.02%
- Oxidative impurity 1 content (pH 5.5, T = 0): 0.00%
- Oxidative impurity 2 content (pH 5.5, T = 0): 0.00%
- Regiomer impurity content (pH 5.5, T = 0): 0.00%
- Sum Impurities >0.05 (pH 5.5, T = 0): 0.16%
- Total Impurities (pH 5.5, T = 0): 0.33%
- Triol impurity content (pH 5.5, T = 0): 0.05%
- Acetal impurity content [3]: 0.05%
- Amine impurity content [3]: 0.05%
- Content of unnamed impurity, relative retention time 1.52 [3]: 0.03%
- Oxidative impurity 1 content [3]: 0.00%
- Oxidative impurity 2 content [3]: 0.00%
- Regiomer impurity content [3]: 0.00%
- Sum Impurities >0.05 [3]: 0.21%
- Total Impurities [3]: 0.36%
- Triol impurity content [3]: 0.05%
- Acetal impurity content [4]: 0.05%
- Amine impurity content [4]: 0.04%
- Content of unnamed impurity, relative retention time 1.52 [4]: 0.02%
- Oxidative impurity 1 content [4]: 0.01%
- Oxidative impurity 2 content [4]: 0.02%
- Regiomer impurity content [4]: 0.30%
- Sum Impurities >0.05 [4]: 0.45%
- Total Impurities [4]: 0.65%
- Triol impurity content [4]: 0.05%
- Acetal impurity content (pH 6.5, T = 0): 0.06%
- Amine impurity content (pH 6.5, T = 0): 0.05%
- Content of unnamed impurity, relative retention time 1.52 (pH 6.5, T = 0): 0.03%
- Oxidative impurity 1 content (pH 6.5, T = 0): 0.00%
- Oxidative impurity 2 content (pH 6.5, T = 0): 0.00%
- Regiomer impurity content (pH 6.5, T = 0): 0.00%
- Sum Impurities >0.05 (pH 6.5, T = 0): 0.22%
- Total Impurities (pH 6.5, T = 0): 0.36%
- Triol impurity content (pH 6.5, T = 0): 0.06%
- Acetal impurity content [5]: 0.06%
- Amine impurity content [5]: 0.05%
- Content of unnamed impurity, relative retention time 1.52 [5]: 0.04%
- Oxidative impurity 1 content [5]: 0.00%
- Oxidative impurity 2 content [5]: 0.00%
- Regiomer impurity content [5]: 0.00%
- Sum Impurities >0.05 [5]: 0.23%
- Total Impurities [5]: 0.41%
- Triol impurity content [5]: 0.06%
- Acetal impurity content [6]: 0.06%
- Amine impurity content [6]: 0.05%
- Content of unnamed impurity, relative retention time 1.52 [6]: 0.03%
- Oxidative impurity 1 content [6]: 0.00%
- Oxidative impurity 2 content [6]: 0.04%
- Regiomer impurity content [6]: 0.35%
- Sum Impurities >0.05 [6]: 0.56%
- Total Impurities [6]: 0.72%
- Triol impurity content [6]: 0.05%
